From patent publication US20260174761A1 (priority 2022, published 2026)

Tests used:
IBD mice = experiment: DSS-induced inflammatory bowel disease (IBD) mouse model: colon IL-6 by ELISA and colon length; type: in vivo, C57BL6 mice; conditions: for reduction of IL-6 levels within the colon: male mice, 2.5% DSS for 5 days, treatment from day 4 for four days, 2-CL-MGV-1 15 mg/kg, dexamethasone 0.75 mg/kg, vs DSS without treatment
Procedure: FIG. 1 includes a bar graph showing that interleukin (IL) 6 levels in the gut of IBD mice are reduced in response to 2-CL-MGV-1 treatment. Nine-weeks-old C57BL6 male mice were given 2.5% dextran sulfate sodium (DSS) in drinking water for 5 days. Naive mice were given water only. The treatments: 2-CL-MGV-1 and dexamethasone were given on day 4 for four days. […] ANOVA followed by Bonferroni's post-hoc test was performed. ***p<0.00001 compared to control.
FIG. 2 includes a bar graph showing that the treatment with 2-CL-MGV-1 reduces the shortening of IBD mice colon. Nine-weeks-old C57BL6 male mice were given 2.5% DSS in drinking water for 5 days. Naive mice were given water only. The treatments: 2-CL-MGV-1 and dexamethasone were given on day 4 for four days.
FIG. 4 includes a vertical bar graph showing that IL 6 levels in the gut of IBD mice are reduced in response to 2-CL-MGV-1 treatment. C57BL female mice aged of 8-10 weeks were given 2.5% DSS in their drinking water for 7 days. Vehicle group mice were given water only and DMSO injections on the 4th day for 4 days. DSS group received DSS with DMSO (as a vehicle) that were given on the 4th day for 4 days. The treatment group received 2-CL-MGV-1 (15 mg/kg) and DMSO as a vehicle were given on the 4th day for 4 days. […] ANOVA followed by Bonferroni's post-hoc test was performed. ***p<0.001 compared to control.
FIG. 5 includes a vertical bar graph showing that the treatment with 2-CL-MGV-1 reduces the shortening of IBD mice colon. C57BL female mice aged of 8-10 weeks were given 2.5% DSS in their drinking water for 7 days. Vehicle group mice were given water only and DMSO injections on the 4th day for 4 days. DSS group received DSS with DMSO (as a vehicle) that were given on the 4th day for 4 days. The treatment group received 2-CL-MGV-1 (15 mg/kg) and DMSO (as a vehicle) that were given on the 4th day for 4 days. […] ANOVA followed by Bonferroni's post-hoc test was performed. ***p<0.001 compared to control.
C57BL mice 8-10 weeks old were given 2.5% DSS in their drinking water for 7 days. On the fourth day, the mice were injected subcutaneously (S.C) with either DMSO or 2-CL-MGV-1 (30 μl) for four days. The mice were sacrificed on the eighth day of the experiment.
In the IBD experiment, 2-Cl-MGV-1 was injected subcutaneously for four days, three days after inflammation induction in the colon, using dextran sulfate sodium (DSS). On the following day, the mice were sacrificed, and the colon was removed. Colon lengths were measured, and cytokine levels were detected by ELISA.

[1] = high concentrations (above 100 μM); cited from earlier work
[2] = tested on: human retinal pigment epithelium (RPE)-19 cell line; experiment: In vitro AMD model: RPE-19 cells stimulated with TNF-α and INF-γ (TI), secreted pro-inflammatory mediators; type: cell-based; conditions: RPE cells pretreated with compound, TNF-α and INF-γ stimulation
Excerpt: TNF-α and INF-γ stimulation (TI).
Next, the effect of 2-CL-MGV-1 was examined in an in vitro model of age-related macular degeneration (AMD). Human retinal pigment epithelium (RPE)-19 cell line stimulated with TNF-α and INF-γ (TI) are known to mimic AMD by complement activation and increased levels of circulating cytokines.

[3] = tested on: lipopolysaccharide (LPS)-induced microglial activation; conditions: recent studies of the inventors; cited from earlier work
[4] = female mice, 2.5% DSS for 7 days, 2-CL-MGV-1 15 mg/kg s.c. from 4th day for 4 days, vs DSS+vehicle (DMSO)

## C[C@@H]1C[C@H]2[C@@H]3CCC4=CC(=O)C=C[C@]4(C)[C@@]3(F)[C@@H](O)C[C@]2(C)[C@@]1(O)C(=O)CO [dexamethasone, reference compound]
IBD mice
  reduction of IL-6 levels within the colon: 20%

## CCC(C)N(C)C(=O)c1cc2ccccc2c(-c2ccccc2Cl)n1 (centres unmarked) [PK 11195, reference compound]
[1]
  lethal effects: pronounced lethal effects

## CN(C)C(=O)Oc1nc(-c2ccccc2Cl)nc2ccccc12 [2-Cl-MGV-1, 2-chlorophenyl quinazolin-4-yl dimethylcarbamate]
[2]
  TI-induced secretion of IL-8: significantly reduced
  TI-induced secretion of complement C3: significantly reduced
  TI-induced secretion of complement C5: significantly reduced
  TI-induced secretion of reactive oxygen species (ROS): significantly reduced
[1]
  lethal effects: very few lethal effects
[3]
  LPS-induced microglial activation: inhibit
IBD mice; [4]
  decrease in IL-6 content in the colon: 64%
  increase in colon length: 26%
IBD mice; male DSS mice, 2-CL-MGV-1 15 mg/kg vs dexamethasone 0.75 mg/kg
  colon shrinkage effect compared to dexamethasone: significantly more pronounced
IBD mice; male and female DSS mice, 2-CL-MGV-1 15 mg/kg for four days
  colon shrinkage (shortening) effect: alleviated the colon shrinkage effect
IBD mice
  reduction of IL-6 levels within the colon: 75%
IBD mice; murine IBD model, compared to DEX
  effect on IL-6 secretion relative to dexamethasone (DEX) treatment: about 75%
